The values that follow come from patent US20210349108A1, “IMMUNOASSAY FOR MEASURING C-PEPTIDE” (Roche Diabetes Care GmbH, priority 2018, published 2021).

In assay [1] the test system is anti-C-peptide antibody PEP001. Put plainly: QCM displacement immunoassay, ligand immobilized on Au-surface, antibody PEP001. Type of assay: binding. To be noted: for QCM frequency change on addition of sample containing WT-C-peptide (displacement of the ligand, release of antibody-C-peptide-complex): streptavidin/ligand/PEP001 assembly on Au-surface. From the text: An Au-substrate is covered with a self-assembled monolayer (SAM). This self-assembled monolayer protects the surface from unspecific adsorption of peptides or proteins. Part of the SAM molecules is coupled with biotin, which is exposed on the surface. To this surface the biotin binding protein streptavidin is applied and bound by the biotin moieties. Since streptavidin has a plurality of binding sides for biotin, a ligand labeled with biotin can be bound to the streptavidin. Finally, anti-C-peptide antibody PEP001 is added, which binds to the ligand forming an immobilized antibody-ligand-complex, which is schematically depicted in FIG. 2. The stepwise build-up of an immobilized antibody-ligand-complex on the Au-surface can be monitored using a Quartz Crystal Microbalance (QCM). […] Referring to FIG. 3, attachment of streptavidin and Mut6-C-peptide results in a frequency shift of about −20 Hz. The binding of antibody PEP001 to the ligand Mut6-C-peptide results in a frequency shift of about >−50 Hz.
Addition of a sample containing C-peptide results in displacement of the ligand by wild type C-peptide and release of a C-peptide-antibody-complex as schematically shown in FIG. 2.
A quantitative determination of the amount of C-peptide within a sample can be achieved by calibrating the assay using solutions having known C-peptide concentrations. The amount of frequency shift observed for a sample indicates the quantitative amount of C-peptide being present within that sample.
An immunoassay as described in Example 1 was provided except that Mut3-C-peptide, Mut2-C-peptide or Mut5-C-peptide were used as ligand.
As described in Example 1, a SAM/biotin/streptavidin/biotin-ligand/antibody-complex is immobilized on an Au-surface. In this Example the ligand was C-peptide mutant B10-25_Mut3, the antibody was PEP001.
Immobilization of a ligand to a surface can also be performed using a linker (instead of a self-assembling monolayer). A suitable linker is for example a cysteine linker. In this configuration immobilization of an antibody via an antibody-ligand-complex to the surface can be detected by measuring impedance. A ligand having the sequence N-[…]-C(SEQ ID NO:7) was directly immobilized on an Au-surface. Additionally, 6-ferrocenyl-1-hexanethiol was bound to the Au surface for enhanced impedance measurement. Unspecific protein binding to the surface was avoided by incubation with a polyethylene glycol (ML-PEG) and bovine serum albumin (BSA).

For assay [2], the system named is anti-C-peptide antibody CPT-3-F11. Put plainly: QCM displacement immunoassay, ligand immobilized on Au-surface, antibody CPT-3-F11. Type of assay: binding.

Bounds are passed on as bounds.

On to “N-VELGGGPGAGSIQPLA-C (variant C-peptide Mut3) [Mut3-C-peptide, C-peptide variant AA10-25; L(21)to I]”, for which the “QCM frequency change on addition of sample containing WT-C-peptide (displacement of the ligand, release of antibody-C-peptide-complex)” value in assay [1] (QCM) is “considerable frequency increase”. Moreover, the “QCM frequency change on adding WT-C-peptide (release of antibody-WT-C-peptide-complex)” value in assay [1] (continuous assay, 500 ng/ml WT-C-peptide, antibody PEP001) was “positive frequency shift”.
Consider “N-CGSGSGSGS-VELGGGPGAGSLAPLA-C (CGSGSGSGSVELGGGPGAGSLAPLA; variant C-peptide Mut6-Cys) [SEQ ID NO:7, AA10-25; Q(22) to A and including a cysteine linker]”, for which the “QCM frequency change on addition of PEP001 antibody” value in assay [1] (ligand directly immobilized on Au-surface via cysteine linker) is given as “considerable negative shift of the frequency”. Besides, the “effect of addition of WT-C-peptide on bound antibody” value in assay [1] (ligand directly immobilized on Au-surface via cysteine linker, QCM) is reported as “release of the bound antibody”.
Regarding “N-VELGGGPGAGSLAPLA-C (variant C-peptide Mut6) [Mut6-C-peptide, C-peptide variant AA10-25; Q(22)to A]”, the “frequency shift on binding of antibody PEP001 to the ligand” value in assay [1] (QCM, biotin-labeled ligand on SAM/biotin/streptavidin Au-surface, negative shift = mass increase) is recorded as more than −50 Hz. In assay [1] (QCM), the “QCM frequency change on addition of sample containing WT-C-peptide (displacement of the ligand, release of antibody-C-peptide-complex)” value is reported as “observable positive frequency shift”.
For the substance “N-GQVECGGGPG-C (variant C-peptide Mut18) [Mut18-C-peptide, C-peptide variant AA8-17; L(12)to C]”, in assay [2] (antibody CPT-3-F11), the “QCM frequency change on addition of sample containing WT-C-peptide (displacement of the ligand)” value is listed as “considerable frequency increase”. Further, the “frequency shift on addition of anti-C-peptide antibody CPT-3-F11” value in assay [2] (streptavidin/ligand assembly on Au-surface) is recorded as approximately −30 Hz.
